Reference: patent publication US8822699B2, “Heterocyclic compound and use thereof” (Takeda Pharmaceutical Company Limited, priority 2010, dated 2014)
pIC50: −log10 of the molar value. Like-named read-outs stand apart in the source and are kept apart here.

How the values were obtained:
[1] = tested on: Aβ42 production in primary nerve cells; assay: Measurement of amyloid β production inhibition rate using primary nerve cell (Aβ42 sandwich ELISA); type: cell-based; conditions: primary nerve cells from cerebral cortex of SD rat fetus, cultured 3 days with compound, culture supernatant, sandwich ELISA for Aβ42, read-out: Aβ42 production inhibitory activity IC50
Experimental: Measurement of Amyloid β Production Inhibition Rate Using Primary Nerve Cell
The primary nerve cells were collected from the cerebral cortex of rat fetus (CLEA Japan, Inc.: SD rat, fetal life 17 days of age), and suspended in a neurobasal medium containing B27 supplement, L-glutamine, penicillin-streptomycin (manufactured by Invitrogen) at 500,000 cells/mL. Then, the suspension was seeded in poly L-lysine-coated 96 well plate (manufactured by SUMITOMO BAKELITE) by 100 μL, and cultured at 37° C., 5% CO2 for 7 days. The medium was completely removed, and a new neurobasal medium was added at 75 μL/well. Thereto was added (75 μL/well) a neurobasal medium supplemented with a 2-fold measurement concentration of an evaluation target compound, and the mixture was cultured for 3 days. The culture supernatant was collected from each well, diluted as appropriate, applied to sandwich ELISA between BNT77 antibody-BA27 antibody (for Aβ40) and sandwich ELISA between BNT77 antibody-3005 antibody (for Aβ42), and the amounts of Aβ40 and Aβ42 were measured.
The amyloid β production inhibition rate (%) of the compound was calculated by the following formula. (1−(amyloid β production amount with addition of compound)/(amyloid β production amount without addition of compound))×100
The amyloid β production 50% inhibitory rate (IC50 value) was calculated using the statistical analysis software (SAS Preclinical Package) as the concentration of the compound showing 50% inhibition when the amyloid β production amount without addition of the compound is 100%. In addition, a new neurobasal medium was added (75 μL/well) to the cells after collection of the culture supernatant, and the cells were left standing for about 30 min to reach room temperature. Cell-Titer Glo Luminescent Cell Viability Assay (manufactured by Promega) was added at 75 μL/well, and the plate was shaken for 2 min and reacted for about 10 min.

[2] = tested on: Aβ42 (soluble Aβ in hippocampi); assay: Aβ42 in hippocampi of mice after oral administration (Aβ ELISA); type: in vivo; conditions: C57BL/6J mice, 10 mg/kg orally, hippocampi isolated 3 hours after administration, soluble Aβ42 by two-site sandwich ELISA; for inhibition at 10 mg/kg: Mus musculus, po, 3 h, read-out: Aβ42 production inhibitory activity (% inhibition); for Aβ42 production inhibitory activity (% inhibition): 10 mg/kg
Experimental: C57BL/6J mice (7-10 weeks old) were purchased from CLEA Japan Inc. Mice were housed in groups and kept on a 12 h-light; 12 h-dark schedule. All mice were given ad libitum access to food and water.
Each test compound was reconstituted in solubilization buffer ([DMSO (Wako)]: [10% Cremophor (Nakarai)+30% polyethylene glycol 400 (Wako)+60% 2 mol/L Citrate buffer (Wako)]=1:9) and orally administrated at 10 mg/kg.
Hippocampi was isolated from animals, 3 hours after test compounds were orally administrated. Hippocampi were homogenized in ice-cold Tris-extraction buffer (50 mmol/L Tris-HCl, pH 7.2, 200 mmol/L sodium chloride, 2% protease-free bovine serum albumin, and 0.01% sodium merthiolate) containing protease inhibitor cocktails (Roche, Switzerland). After centrifugation at 15,000 rpm for 15 minutes, the supernatants were subjected to two-site sandwich ELISA to measure amount of soluble Aβ. Aβ42 was quantitated by two-site sandwich ELISA using BNT77, which recognizes Aβ11-28, as a capture antibody and BC05-HRP as a detector antibody, respectively.

Compound	pIC50 [1]	pIC50 ([1]; Rattus norvegicus, 72 h)	inhibition at 10 mg/kg [2]	Aβ42 production inhibitory activity (% inhibition) [2]
COc1cc(-c2nnc3n2CCCC3(Oc2ccc(F)c(F)c2)C(C)(C)O)ccc1-c1cnc(C)o1 (stereo not shown) [Example 124, 2-{8-(3,4-difluorophenoxy)-3-[3-methoxy-4-(2-methyl-1,3-oxazol-5-yl)phenyl]-5,6,7,8-tetrahydro[1,2,4]triazolo[4,3-a]pyridin-8-yl}propan-2-ol]	7.17	–	41%	–
COc1cc(-c2nnc3n2CCCC3(COc2ccc(Cl)cc2)C(C)(C)O)ccc1-c1cnc(C)o1 (stereo not shown) [Example 127, 2-{8-[(4-chlorophenoxy)methyl]-3-[3-methoxy-4-(2-methyl-1,3-oxazol-5-yl)phenyl]-5,6,7,8-tetrahydro[1,2,4]triazolo[4,3-a]pyridin-8-yl}propan-2-ol]	–	7.36	21%	–
COc1cc(-c2nnc3n2CCCC3(Oc2cccc(C(F)(F)F)c2)C(C)(C)O)ccc1-c1cnc(C)o1 (stereo not shown) [Example 130, 2-{3-[3-methoxy-4-(2-methyl-1,3-oxazol-5-yl)phenyl]-8-[3-(trifluoromethyl)phenoxy]-5,6,7,8-tetrahydro[1,2,4]triazolo[4,3-a]pyridin-8-yl}propan-2-ol]	7.62	–	–	59%
COc1cc(-c2nnc3n2CCCC3(Oc2ccc(C(F)(F)F)cc2)C(C)(C)O)ccc1-c1cnc(C)o1 (stereo not shown) [Example 132, 2-{3-[3-methoxy-4-(2-methyl-1,3-oxazol-5-yl)phenyl]-8-[4-(trifluoromethyl)phenoxy]-5,6,7,8-tetrahydro[1,2,4]triazolo[4,3-a]pyridin-8-yl}propan-2-ol]	7.72	–	–	58%
COc1nc(-c2nnc3n2CCCC3(Oc2cc(F)c(F)c(F)c2)C(C)(C)O)ccc1-n1cnc(C)c1 (stereo not shown) [Example 134, 2-{3-[6-methoxy-5-(4-methyl-1H-imidazol-1-yl)pyridin-2-yl]-8-(3,4,5-trifluorophenoxy)-5,6,7,8-tetrahydro[1,2,4]triazolo[4,3-a]pyridin-8-yl}propan-2-ol]	–	7.38	31%	–
COc1cc(-c2nnc3n2CCCC3(Oc2ccc(Cl)c(C(F)(F)F)c2)C(C)(C)O)ccc1-n1cnc(C)n1 (stereo not shown) [Example 139, 2-{8-[4-chloro-3-(trifluoromethyl)-phenoxy]-3-[3-methoxy-4-(3-methyl-1H-1,2,4-triazol-1-yl)phenyl]-5,6,7,8-tetrahydro-[1,2,4]triazolo[4,3-a]pyridin-8-yl}propan-2-ol]	–	7.40	22%	–
COc1cc(-c2nnc3n2CCCC3(Oc2cc(F)cc(F)c2)C(C)(C)O)ccc1-c1cnc(C)o1 (stereo not shown) [Example 141, 2-{8-(3,5-difluorophenoxy)-3-[3-methoxy-4-(2-methyl-1,3-oxazol-5-yl)phenyl]-5,6,7,8-tetrahydro[1,2,4]triazolo[4,3-a]pyridin-8-yl}propan-2-ol]	7.11	–	46%	–
COc1cc(-c2nnc3n2CCCC3(Oc2cc(F)c(F)c(F)c2)C(C)(C)O)ccc1-c1cnn(C)c1 (stereo not shown) [Example 144, 2-{3-[3-methoxy-4-(1-methyl-1H-pyrazol-4-yl)phenyl]-8-(3,4,5-trifluorophenoxy)-5,6,7,8-tetrahydro[1,2,4]triazolo[4,3-a]pyridin-8-yl}propan-2-ol]	–	6.67	31%	–

Continued, in another order:

pIC50 [1]	pIC50 ([1]; Rattus norvegicus, 72 h)	Compound	inhibition at 10 mg/kg [2]	Aβ42 production inhibitory activity (% inhibition) [2]
–	7.31	COc1nc(-c2nnc3n2CCC[C@]3(Oc2cc(F)c(F)c(F)c2)C(C)(C)O)ccc1-n1cnc(C)c1 [Example 152, 2-{(8R)-3-[6-methoxy-5-(4-methyl-1H-imidazol-1-yl)pyridin-2-yl]-8-(3,4,5-trifluorophenoxy)-5,6,7,8-tetrahydro[1,2,4]triazolo[4,3-a]pyridin-8-yl}propan-2-ol]	57%	–
7.55	–	COc1cc(-c2nnc3n2CCCC3(Oc2cc(F)cc(F)c2)C(C)(C)O)ccc1-c1cnc(C)o1 (stereo not shown) [Example 155, 2-{8-(3,5-difluorophenoxy)-3-[3-methoxy-4-(2-methyl-1,3-oxazol-5-yl)phenyl]-5,6,7,8-tetrahydro[1,2,4]triazolo[4,3-a]pyridin-8-yl}propan-2-ol]	–	56%
8.22	–	COc1nc(-c2nnc3n2CCCC3(Oc2ccc(F)c(C(F)(F)F)c2)C(C)(C)O)ccc1-n1cnc(C)c1 (stereo not shown) [Example 157, 2-{8-[4-fluoro-3-(trifluoromethyl)phenoxy]-3-[6-methoxy-5-(4-methyl-1H-imidazol-1-yl)pyridin-2-yl]-5,6,7,8-tetrahydro[1,2,4]triazolo[4,3-a]pyridin-8-yl}propan-2-ol]	61%	–
–	7.07	COc1cc(-c2nnc3n2CCCC3(Oc2cc(F)c(F)c(F)c2)C(C)(C)O)c(F)cc1-c1cnc(C)o1 (stereo not shown) [Example 162, 2-{3-[2-fluoro-5-methoxy-4-(2-methyl-1,3-oxazol-5-yl)phenyl]-8-(3,4,5-trifluorophenoxy)-5,6,7,8-tetrahydro[1,2,4]triazolo[4,3-a]pyridin-8-yl}propan-2-ol]	26%	–
–	7.33	COc1nc(-c2nnc3n2CCCC3(Oc2cc(F)c(F)c(F)c2)C(C)(C)O)ccc1-c1cnc(C)o1 (stereo not shown) [Example 172, 2-{3-[6-methoxy-5-(2-methyl-1,3-oxazol-5-yl)pyridin-2-yl]-8-(3,4,5-trifluorophenoxy)-5,6,7,8-tetrahydro[1,2,4]triazolo[4,3-a]pyridin-8-yl}propan-2-ol]	35%	–
7.55	–	COc1cc(-c2nnn3c2CCCC3(Oc2cc(F)c(F)c(F)c2)C(C)(C)O)ccc1-c1cnc(C)o1 (stereo not shown) [Example 186, 2-{3-[3-methoxy-4-(2-methyl-1,3-oxazol-5-yl)phenyl]-7-(3,4,5-trifluorophenoxy)-4,5,6,7-tetrahydro[1,2,3]triazolo[1,5-a]pyridin-7-yl}propan-2-ol]	22%	–
